Patent US6114393A, “Use of inhibitors of the sodium-hydrogen exchanger for the production of a pharmaceutical for the treatment of disorders which are caused by protozoa” (Hoechst Marion Roussel Deutschland GmbH, priority 1997, dated 2000)
Structures can show the parent of a compound that is named as a salt. Where two headings read alike, the source gives them in different places.

What was measured:
[1] = tested on: Plasmodium falciparum Dd2 (chloroquine-resistant) strain; experiment: growth inhibition of Plasmodium falciparum, [3H]-hypoxanthine incorporation, chloroquine-resistant (Dd2) strain; assay type: cell-based; details: read-out: Dd2 IC50
Experimental: (§1) Erythrocytic stages of the human malaria parasite Plasmodium falciparum were cultured in RPMI 1640 medium, with L-glutamine, 25 mM HEPES, 4 μg/ml of gentamycin, 10% human serum and 5% human erythrocytes, according to Trager and Jensen (1976). The cultures were kept in Petri dishes (10 ml per dish with 10 cm diameter) and incubated at 37° C. in an atmosphere of 92% nitrogen, 3% carbon dioxide and 5% oxygen. The medium of the cultures was changed daily. At a parasitemia of at most 10%, the cultures were diluted. In order to synchronize the cultures, the infected erythrocytes were washed in 5% strength sorbitol solution according to Lambros and Vanderberg (1979). Only the ring stages survive this treatment.
(§2) The half-maximal inhibitory concentration of various NHE inhibitors for the growth of Plasmodium flaciparum was measured in 96-well microtiter plates by incorporation of radioactive hypoxanthine according to Desjardins et al. (1979). In this case, the parasites were cultured for a complete erythrocyte cycle lasting 48 hours in the presence of the corresponding NHE inhibitors.
(§3) The NHE inhibitors were dissolved in DMSO and prediluted in physiological saline solution (150 mM NaCl). The dilution series of the NHE inhibitors in 10-fold concentrated 20 μl aliquots was initially introduced onto the microtiter plates, 180 μl of parasite suspension in culture medium were then added to each one. The parasites were in the ring stage with a parasitemia of 1%. The microtiter plates were then incubated for 24 hours. In order to change the culture medium, 150 μl each of supernatant from each well were removed and replaced by 135 μl of new medium, additionally supplemented with 2 μCi/ml of [3H]-hypoxanthine. […] After incubation for a further 24 hours, the cultures were harvested by filtration on glass fiber filters and the incorporated radioactivity was measured. […]
(§4) The IC50 values of the various NHE inhibitors were measured on a chloroquine-sensitive (HB3) and a chloroquine-resistant (Dd2) strain.

[2] = tested on: Plasmodium falciparum HB3 (chloroquine-sensitive) strain; experiment: growth inhibition of Plasmodium falciparum, [3H]-hypoxanthine incorporation, chloroquine-sensitive (HB3) strain; assay type: cell-based; details: 48 h erythrocyte cycle, ring stage, 1% parasitemia
Experimental: as §1, §2, §3, §4

[3] = Dd2, chloroquine-resistant, 48 h erythrocyte cycle, ring stage, 1% parasitemia

| Compound | IC50 ([1]; DD2, Erythrocyte, 48 h) [µM] | IC50 [2] [µM] | IC50 [1, 3] [µM] |
| --- | --- | --- | --- |
| CS(=O)(=O)c1cc(C(=O)N=C(N)N)ccc1Oc1ccc(CCN)cc1 [4-[4-(2-aminoethyl)phenoxy]-3-methylsulfonylbenzoylguanidine dihydrochloride] | 3.5 ± 0.04 | 2.9 ± 0.79 |  |
| NC(N)=NC(=O)c1ccc(Oc2cccnc2)c(C(F)(F)F)c1 [3-trifluoromethyl-4-(3-pyridyloxy)benzoylguanidine dihydrochloride] |  | 12 ± 1.7 | 6.5 ± 1.5 |
| CN(C)c1cc(C(=O)N=C(N)N)cc(C(F)(F)F)c1 [3-trifluoromethyl-5-N,N-dimethylaminobenzoylguanidine dihydrochloride] |  | 9.97 | 1.3 ± 0.1 |
